Assay results as given in US8415469B2, “Compounds and methods for kinase modulation, and indications therefor” (Plexxikon Inc., priority 2005, dated 2013).

What was measured:
Assay type in all cases: biochemical
[1] = target: T1, Jnk3 (Homo sapiens, UniProt P53779); assay: AlphaScreen kinase assay, Jnk3; conditions: read-out: IC50, activity toward kinase Jnk3
T1 construct: purchased Upstate Biotechnology

[2] = target: T2, Itk (Homo sapiens, UniProt Q08881); assay: AlphaScreen kinase assay, Itk; conditions: read-out: IC50, activity toward kinase Itk
T2 sequence (Q08881 1-620): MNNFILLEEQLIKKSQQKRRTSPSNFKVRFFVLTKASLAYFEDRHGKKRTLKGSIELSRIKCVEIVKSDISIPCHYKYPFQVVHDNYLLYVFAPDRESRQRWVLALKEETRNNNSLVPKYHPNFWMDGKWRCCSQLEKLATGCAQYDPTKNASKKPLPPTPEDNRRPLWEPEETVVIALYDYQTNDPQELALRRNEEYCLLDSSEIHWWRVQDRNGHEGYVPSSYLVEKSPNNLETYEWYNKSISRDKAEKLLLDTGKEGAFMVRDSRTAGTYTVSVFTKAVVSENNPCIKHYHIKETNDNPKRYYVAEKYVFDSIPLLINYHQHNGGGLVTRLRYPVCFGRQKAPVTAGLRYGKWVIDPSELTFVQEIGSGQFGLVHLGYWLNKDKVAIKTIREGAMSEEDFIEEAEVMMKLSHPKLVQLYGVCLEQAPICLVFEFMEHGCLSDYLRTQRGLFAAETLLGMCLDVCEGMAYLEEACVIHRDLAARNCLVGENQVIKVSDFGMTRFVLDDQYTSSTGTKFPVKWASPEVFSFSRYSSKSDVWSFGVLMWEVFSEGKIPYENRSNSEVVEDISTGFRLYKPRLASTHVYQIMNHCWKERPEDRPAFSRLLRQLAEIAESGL
From the text: (§1) AlphaScreen assay was used to screen additional kinases. The assay is similarly dependent on the phosphorylation of a peptide substrate. In this assay, an antibody that recognizes phosphorylated substrate is bound to an acceptor bead. The peptide substrate is attached to biotin, which binds to a donor head that contains streptavidin. Thus phosphorylated substrate is bound by antibody and streptavidin, bringing the donor and acceptor heads into close proximity when kinase is not inhibited. The donor produces singlet oxygen which results in emission from the acceptor when they are in close proximity. Conversely, when kinase is inhibited, the donor and acceptor beads are not associated and the emission from the acceptor is reduced.
(§2) AlphaScreen assays were done using compounds dissolved in DMSO to a concentration of 20 mM. The compounds were diluted accordingly to the desired final concentrations in each sample well, using 1:3 serial dilution for a total of 8 concentration points.

[3] = target: T3, Met (Homo sapiens, UniProt P08581); assay: AlphaScreen kinase assay, Met; conditions: read-out: IC50, activity toward kinase Met
T3 construct: P1818.pETN6 BI-PTP MET G1056-G1364-X WT; His6 (N); made in house; host or cells: E. coli (PTP1B co-expressed)
T3 sequence (P08581 with tags, fused parts or gaps): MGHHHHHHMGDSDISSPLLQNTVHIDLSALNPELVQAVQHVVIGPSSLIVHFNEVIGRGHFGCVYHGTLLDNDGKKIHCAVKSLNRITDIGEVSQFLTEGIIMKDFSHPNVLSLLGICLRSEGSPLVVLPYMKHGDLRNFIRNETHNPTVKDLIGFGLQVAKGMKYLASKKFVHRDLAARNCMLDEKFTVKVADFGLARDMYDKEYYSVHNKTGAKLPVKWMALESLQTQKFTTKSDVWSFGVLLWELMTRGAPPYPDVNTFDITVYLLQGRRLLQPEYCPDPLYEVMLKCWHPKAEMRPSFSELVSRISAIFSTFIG
Method in brief: (§3)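 Uses phospho-specific antibody on acceptor beads plus streptavidin donor beads capturing biotinylated peptide substrate; singlet oxygen from donor excites nearby acceptor. Inhibitors tested in 8-point, 1:3 titrations starting from 20 mM DMSO solutions.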

[4] = target: T4, Ret (Homo sapiens, UniProt P07949); assay: AlphaScreen kinase assay, Ret; conditions: read-out: IC50, activity toward kinase Ret
T4 construct: P1378.pET-SF BI-PTP RET H661-R1012 HIS; made in house
T4 sequence (P07949 with tags, fused parts or gaps): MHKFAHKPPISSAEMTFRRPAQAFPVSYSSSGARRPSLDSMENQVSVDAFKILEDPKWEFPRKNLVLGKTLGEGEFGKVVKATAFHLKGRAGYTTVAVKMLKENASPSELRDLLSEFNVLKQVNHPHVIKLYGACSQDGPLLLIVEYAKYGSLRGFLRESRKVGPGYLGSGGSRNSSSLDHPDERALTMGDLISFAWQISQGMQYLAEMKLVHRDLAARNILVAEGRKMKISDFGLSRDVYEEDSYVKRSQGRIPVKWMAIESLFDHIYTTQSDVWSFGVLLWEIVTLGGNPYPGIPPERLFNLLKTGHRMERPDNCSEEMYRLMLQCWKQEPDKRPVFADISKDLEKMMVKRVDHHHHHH

[5] = target: T5, c-Raf-1 (Homo sapiens, UniProt P04049); assay: AlphaScreen kinase assay, c-Raf-1; conditions: read-out: IC50, activity toward kinase c-Raf-1
T5 construct: purchased Upstate Biotechnology

[6] = target: T6, B-Raf V600E (Homo sapiens, UniProt P15056, V600E); assay: AlphaScreen kinase assay, B-Raf V600E; conditions: read-out: IC50, activity toward kinase B-Raf V600E
T6 construct: P4254. pFastBacBD-CDC37 BRAF D437-K722-X, V600E; His6 with pFastBac HT leader (TEV site) (N); made in house; host or cells: Sf9 (baculovirus; chaperone CDC37 co-expressed)
T6 sequence (P15056 with tags, fused parts or gaps V600E): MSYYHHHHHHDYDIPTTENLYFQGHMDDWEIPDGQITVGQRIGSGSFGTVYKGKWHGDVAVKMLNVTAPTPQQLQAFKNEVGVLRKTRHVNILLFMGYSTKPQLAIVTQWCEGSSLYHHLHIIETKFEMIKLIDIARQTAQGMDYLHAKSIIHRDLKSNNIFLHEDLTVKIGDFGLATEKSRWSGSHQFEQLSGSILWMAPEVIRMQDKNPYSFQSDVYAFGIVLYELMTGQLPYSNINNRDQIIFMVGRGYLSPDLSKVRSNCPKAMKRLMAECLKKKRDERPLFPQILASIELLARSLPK

[7] = target: T7, Fms (Homo sapiens, UniProt P07333); assay: AlphaScreen kinase assay, Fms; conditions: read-out: IC50, activity toward kinase Fms
T7 construct: purchased Upstate Biotechnology

[8] = target: T8, Kit (Homo sapiens, UniProt P10721); assay: AlphaScreen kinase assay, Kit; conditions: read-out: IC50, activity toward kinase Kit
T8 construct: P1332.N6 BI PTP KIT M552-K948-X COD; His6 (N); made in house; host or cells: E. coli (PTP1B co-expressed)
T8 sequence (P10721 with tags, fused parts or gaps): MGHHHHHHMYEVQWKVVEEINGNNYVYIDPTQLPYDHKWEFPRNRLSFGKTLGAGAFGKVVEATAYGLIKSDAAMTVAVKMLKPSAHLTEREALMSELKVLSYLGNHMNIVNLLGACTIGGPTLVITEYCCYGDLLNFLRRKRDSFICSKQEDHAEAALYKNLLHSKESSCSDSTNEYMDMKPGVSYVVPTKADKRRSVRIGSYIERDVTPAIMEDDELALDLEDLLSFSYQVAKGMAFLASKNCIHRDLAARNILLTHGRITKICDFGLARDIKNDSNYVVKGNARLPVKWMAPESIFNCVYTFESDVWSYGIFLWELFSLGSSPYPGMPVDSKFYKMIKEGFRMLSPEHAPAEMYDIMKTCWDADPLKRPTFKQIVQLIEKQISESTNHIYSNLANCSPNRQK

[9] = target: T9, B-Raf (Homo sapiens, UniProt P15056); assay: AlphaScreen kinase assay, B-Raf; conditions: read-out: IC50, activity toward kinase B-Raf
T9 construct: purchased Upstate Biotechnology
T9 sequence (P15056 whole entry): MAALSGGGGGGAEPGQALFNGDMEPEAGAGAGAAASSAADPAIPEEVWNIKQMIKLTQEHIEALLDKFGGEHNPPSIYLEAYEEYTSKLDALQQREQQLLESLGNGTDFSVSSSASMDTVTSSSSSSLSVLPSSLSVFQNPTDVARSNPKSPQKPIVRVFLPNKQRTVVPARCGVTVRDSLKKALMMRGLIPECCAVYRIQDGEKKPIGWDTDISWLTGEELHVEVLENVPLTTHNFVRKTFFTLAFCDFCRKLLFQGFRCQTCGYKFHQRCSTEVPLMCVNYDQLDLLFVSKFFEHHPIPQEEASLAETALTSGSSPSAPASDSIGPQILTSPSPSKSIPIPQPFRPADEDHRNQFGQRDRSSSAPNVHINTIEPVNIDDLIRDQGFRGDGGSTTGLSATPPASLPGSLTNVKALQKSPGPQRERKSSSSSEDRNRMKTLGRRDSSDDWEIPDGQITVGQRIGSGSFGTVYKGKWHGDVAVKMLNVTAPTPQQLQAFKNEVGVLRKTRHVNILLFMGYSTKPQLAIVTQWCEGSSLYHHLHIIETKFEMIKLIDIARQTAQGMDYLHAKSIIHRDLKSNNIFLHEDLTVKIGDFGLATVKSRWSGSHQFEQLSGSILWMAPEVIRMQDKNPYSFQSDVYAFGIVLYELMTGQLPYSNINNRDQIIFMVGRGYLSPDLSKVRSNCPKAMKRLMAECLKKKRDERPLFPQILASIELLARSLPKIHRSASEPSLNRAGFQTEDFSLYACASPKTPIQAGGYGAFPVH

[10] = target: T10, FGFR1 (Homo sapiens, UniProt P11362, C488A/C584S); assay: AlphaScreen kinase assay, FGFR1; conditions: read-out: IC50, activity toward kinase FGFR
T10 construct: P1351.pET N6 BI-PTP FGFR A458-E765-X C488A, C584S; made in house; host or cells: E. coli (PTP1B co-expressed)
T10 sequence (P11362 458-765 C488A/C584S): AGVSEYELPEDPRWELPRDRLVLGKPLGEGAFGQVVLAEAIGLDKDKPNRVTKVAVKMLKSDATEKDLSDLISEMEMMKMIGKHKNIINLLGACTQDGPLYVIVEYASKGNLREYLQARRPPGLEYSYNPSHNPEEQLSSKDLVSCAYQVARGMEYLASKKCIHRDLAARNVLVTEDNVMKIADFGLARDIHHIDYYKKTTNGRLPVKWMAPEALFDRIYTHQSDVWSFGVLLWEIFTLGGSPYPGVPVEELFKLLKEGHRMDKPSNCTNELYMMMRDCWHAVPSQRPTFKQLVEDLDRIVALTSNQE

[11] = target: T11, Jnk2 (Homo sapiens, UniProt P45984); assay: AlphaScreen kinase assay, Jnk2; conditions: read-out: IC50, activity toward kinase Jnk2
T11 construct: purchased Roche Protein Expression Group (Indianapolis, IN)
Method in brief: as §3

[12] = target: T12, Flt1 (Homo sapiens, UniProt P17948); assay: AlphaScreen kinase assay, Flt1; conditions: read-out: IC50, activity toward kinase Flt1
T12 construct: P1826.pETN6 BI-PTP FLT1 M799-D1165-X WT; His6 (N); made in house; host or cells: E. coli (PTP1B co-expressed)
T12 sequence (P17948 with tags, fused parts or gaps): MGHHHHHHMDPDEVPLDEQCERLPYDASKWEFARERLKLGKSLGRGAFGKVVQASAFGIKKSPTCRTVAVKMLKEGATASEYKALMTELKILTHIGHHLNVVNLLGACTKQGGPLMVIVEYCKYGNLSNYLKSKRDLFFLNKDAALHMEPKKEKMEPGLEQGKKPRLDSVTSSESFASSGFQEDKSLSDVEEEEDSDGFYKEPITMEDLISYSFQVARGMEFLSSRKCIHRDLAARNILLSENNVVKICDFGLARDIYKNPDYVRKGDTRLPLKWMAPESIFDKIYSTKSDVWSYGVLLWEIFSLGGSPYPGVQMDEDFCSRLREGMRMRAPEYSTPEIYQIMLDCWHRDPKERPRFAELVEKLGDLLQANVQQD

[13] = target: T13, Abl (Homo sapiens, UniProt P00519); assay: AlphaScreen kinase assay, Abl; conditions: read-out: activity toward kinase Abl, IC50
T13 construct: P1121. pET-SPEC BI-PTP Abl G227-V515-X; His6 (N); made in house; host or cells: E. coli (PTP1B co-expressed)
T13 sequence (P00519 with tags, fused parts or gaps): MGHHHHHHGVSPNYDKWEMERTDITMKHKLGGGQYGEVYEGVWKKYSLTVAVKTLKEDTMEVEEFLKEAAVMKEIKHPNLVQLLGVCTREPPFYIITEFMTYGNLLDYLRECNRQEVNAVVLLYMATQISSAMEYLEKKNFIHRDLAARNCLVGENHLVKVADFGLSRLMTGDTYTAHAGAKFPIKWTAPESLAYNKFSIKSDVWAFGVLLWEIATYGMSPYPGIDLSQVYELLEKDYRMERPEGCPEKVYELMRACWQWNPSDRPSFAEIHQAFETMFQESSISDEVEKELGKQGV
Method in brief: as §3

[14] = target: T14, Jnk1 (Homo sapiens, UniProt P45983); assay: AlphaScreen kinase assay, Jnk1; conditions: read-out: IC50, activity toward kinase Jnk1
T14 construct: purchased Upstate Biotechnology
T14 sequence (P45983 whole entry): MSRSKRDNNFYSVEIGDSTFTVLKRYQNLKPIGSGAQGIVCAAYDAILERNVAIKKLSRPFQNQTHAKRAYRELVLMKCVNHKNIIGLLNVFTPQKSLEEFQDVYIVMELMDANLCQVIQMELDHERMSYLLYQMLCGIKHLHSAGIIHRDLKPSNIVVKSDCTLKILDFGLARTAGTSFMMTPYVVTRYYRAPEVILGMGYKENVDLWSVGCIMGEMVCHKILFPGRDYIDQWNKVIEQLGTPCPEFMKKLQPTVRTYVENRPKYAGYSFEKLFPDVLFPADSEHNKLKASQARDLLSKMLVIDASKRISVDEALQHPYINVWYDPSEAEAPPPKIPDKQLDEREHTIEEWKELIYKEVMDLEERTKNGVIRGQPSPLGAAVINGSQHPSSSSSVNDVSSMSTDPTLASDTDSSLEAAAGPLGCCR

[15] = target: T15, Kdr (Homo sapiens, UniProt P35968); assay: Z'-Lyte FRET kinase assay (Invitrogen), Kdr; conditions: read-out: IC50, activity toward kinase Kdr
T15 construct: purchased Invitrogen (assay run by Invitrogen)
T15 sequence (P35968 20-1356): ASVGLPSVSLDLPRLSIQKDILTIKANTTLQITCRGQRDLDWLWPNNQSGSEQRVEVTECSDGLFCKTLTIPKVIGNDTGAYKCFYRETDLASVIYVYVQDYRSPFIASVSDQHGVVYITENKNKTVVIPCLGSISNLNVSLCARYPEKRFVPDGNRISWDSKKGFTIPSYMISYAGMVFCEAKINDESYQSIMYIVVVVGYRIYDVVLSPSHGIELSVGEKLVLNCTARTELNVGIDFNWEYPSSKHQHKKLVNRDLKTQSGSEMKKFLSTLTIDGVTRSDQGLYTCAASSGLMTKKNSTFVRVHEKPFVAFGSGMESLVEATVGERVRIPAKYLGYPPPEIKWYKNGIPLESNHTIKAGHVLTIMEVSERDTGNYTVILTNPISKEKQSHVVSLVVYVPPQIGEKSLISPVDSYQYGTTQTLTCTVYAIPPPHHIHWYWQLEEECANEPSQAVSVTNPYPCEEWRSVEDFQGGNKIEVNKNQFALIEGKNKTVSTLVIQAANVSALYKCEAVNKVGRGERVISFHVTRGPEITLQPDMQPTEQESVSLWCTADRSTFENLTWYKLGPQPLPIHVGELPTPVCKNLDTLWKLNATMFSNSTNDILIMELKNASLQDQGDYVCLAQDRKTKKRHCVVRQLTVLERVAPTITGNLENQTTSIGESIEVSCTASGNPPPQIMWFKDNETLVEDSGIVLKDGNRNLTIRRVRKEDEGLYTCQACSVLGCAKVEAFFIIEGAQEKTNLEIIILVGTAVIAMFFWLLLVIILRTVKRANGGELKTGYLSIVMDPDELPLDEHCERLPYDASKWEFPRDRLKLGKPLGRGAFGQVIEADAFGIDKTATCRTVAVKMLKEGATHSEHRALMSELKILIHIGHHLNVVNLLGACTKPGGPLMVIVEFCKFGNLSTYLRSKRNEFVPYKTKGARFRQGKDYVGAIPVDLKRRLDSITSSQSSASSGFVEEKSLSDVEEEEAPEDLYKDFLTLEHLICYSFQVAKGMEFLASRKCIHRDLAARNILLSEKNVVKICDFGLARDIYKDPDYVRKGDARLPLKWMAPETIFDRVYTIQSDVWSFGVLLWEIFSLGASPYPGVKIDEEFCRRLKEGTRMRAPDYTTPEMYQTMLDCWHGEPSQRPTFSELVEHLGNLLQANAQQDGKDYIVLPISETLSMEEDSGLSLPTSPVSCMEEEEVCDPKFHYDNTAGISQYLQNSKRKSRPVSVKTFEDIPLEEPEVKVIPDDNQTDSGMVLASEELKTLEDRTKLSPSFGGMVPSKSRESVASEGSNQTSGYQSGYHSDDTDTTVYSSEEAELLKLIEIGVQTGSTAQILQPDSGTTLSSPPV

[16] = target: T16, Flt4 (Homo sapiens, UniProt P35916); assay: AlphaScreen kinase assay, Flt4; conditions: read-out: IC50, activity toward kinase Flt4
T16 construct: purchased ProQinase GmbH (Freiburg, Germany)
Method in brief: as §3

[17] = target: Plk1 (Homo sapiens, UniProt P53350); assay: AlphaScreen kinase assay, Plk1; conditions: read-out: IC50, activity toward kinase Plk1
Plk1, sequence (P53350 whole entry): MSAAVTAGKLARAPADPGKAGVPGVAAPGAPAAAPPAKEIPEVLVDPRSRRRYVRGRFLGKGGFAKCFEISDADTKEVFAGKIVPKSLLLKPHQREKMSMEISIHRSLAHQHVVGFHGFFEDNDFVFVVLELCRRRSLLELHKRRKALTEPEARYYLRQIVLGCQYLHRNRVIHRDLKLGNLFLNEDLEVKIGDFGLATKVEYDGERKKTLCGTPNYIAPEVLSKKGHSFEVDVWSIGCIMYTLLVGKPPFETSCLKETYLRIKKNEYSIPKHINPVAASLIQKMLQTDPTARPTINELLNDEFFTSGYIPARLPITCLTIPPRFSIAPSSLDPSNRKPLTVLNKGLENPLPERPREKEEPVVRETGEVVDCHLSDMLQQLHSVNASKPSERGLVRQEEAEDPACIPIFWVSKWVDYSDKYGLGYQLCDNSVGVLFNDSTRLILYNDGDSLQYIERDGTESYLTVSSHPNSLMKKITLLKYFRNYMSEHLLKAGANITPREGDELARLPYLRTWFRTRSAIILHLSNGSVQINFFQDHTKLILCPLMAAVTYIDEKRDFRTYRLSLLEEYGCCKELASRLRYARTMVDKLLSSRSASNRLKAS
From the text: as §1, §2

[18] = target: T17, Fak (Homo sapiens, UniProt Q05397); assay: AlphaScreen kinase assay, Fak; conditions: read-out: IC50, activity toward kinase Fak
T17 construct: P1358.pFastBacHtb FAK S411-Q686-X; His6 with pFastBacHTb leader (TEV site) (N); made in house; host or cells: Sf9 (baculovirus)

[19] = target: Akt3 (Homo sapiens, UniProt Q9Y243); assay: AlphaScreen kinase assay, Akt3; conditions: read-out: IC50, activity toward kinase Akt3
Method in brief: as §3

[20] = target: T18, Stk6 (Homo sapiens, UniProt O14965); assay: Z'-Lyte FRET kinase assay (Invitrogen), Stk6; conditions: read-out: IC50, activity toward kinase Stk6
T18 construct: purchased Invitrogen (Carlsbad, Calif.), screening service
T18 sequence (O14965 1-403): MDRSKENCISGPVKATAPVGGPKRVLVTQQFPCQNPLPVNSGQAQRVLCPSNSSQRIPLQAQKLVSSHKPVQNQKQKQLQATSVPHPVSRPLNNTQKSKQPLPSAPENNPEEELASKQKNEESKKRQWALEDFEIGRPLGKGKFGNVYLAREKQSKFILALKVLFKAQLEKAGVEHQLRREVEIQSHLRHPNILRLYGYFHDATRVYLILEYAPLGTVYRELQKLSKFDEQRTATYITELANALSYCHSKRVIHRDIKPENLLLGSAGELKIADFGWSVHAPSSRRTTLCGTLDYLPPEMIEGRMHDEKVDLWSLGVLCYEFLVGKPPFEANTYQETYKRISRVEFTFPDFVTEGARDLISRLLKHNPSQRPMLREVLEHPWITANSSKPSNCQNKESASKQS

[21] = target: T19, Btk (Homo sapiens, UniProt Q06187); assay: Z'-Lyte FRET kinase assay (Invitrogen), Btk; conditions: read-out: IC50, activity toward kinase Btk
T19 construct: purchased Invitrogen (assay run by Invitrogen)

Measured: IC50

T1 sequence (P53779 whole entry): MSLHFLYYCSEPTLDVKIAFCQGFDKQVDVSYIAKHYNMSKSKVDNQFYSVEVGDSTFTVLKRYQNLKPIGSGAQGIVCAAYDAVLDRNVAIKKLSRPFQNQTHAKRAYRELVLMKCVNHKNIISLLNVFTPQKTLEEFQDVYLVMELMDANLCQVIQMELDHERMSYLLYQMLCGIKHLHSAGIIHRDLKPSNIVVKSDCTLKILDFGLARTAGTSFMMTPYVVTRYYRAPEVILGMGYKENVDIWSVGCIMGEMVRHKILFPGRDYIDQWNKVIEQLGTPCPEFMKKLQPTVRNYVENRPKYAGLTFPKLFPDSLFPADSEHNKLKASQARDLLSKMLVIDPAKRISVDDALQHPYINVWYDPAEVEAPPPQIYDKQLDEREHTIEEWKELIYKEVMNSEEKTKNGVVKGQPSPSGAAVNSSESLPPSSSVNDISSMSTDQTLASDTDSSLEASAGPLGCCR

Oc1cccc(Cc2c[nH]c3ncc(-c4cccnc4)cc23)c1F [Compound P-0778, 2-Fluoro-3-(5-pyridin-3-yl-1H-pyrrolo[2,3-b]pyridin-3-ylmethyl)-phenol]
≤ 10 µM: [1] | [2] | [3] | [4] | [5] | [6] | [7] | [8] | [9]

COc1cccc(C(=O)c2c[nH]c3ncc(-c4cccc(N)c4)cc23)c1 [Compound P-0579]
not listed: [3] | [5] | [7] | [17] | [18] | [19] | [20] | [21]
≤ 10 µM: all other assays above

O=[N+]([O-])c1ccc(S(=O)(=O)NCc2ccnc3[nH]ccc23)cc1 [Compound P-0366]
≤ 10 µM: [17]

CCN(CC)c1ccc(Nc2cnc3[nH]ccc3c2)cc1 [Compound P-0951]
≤ 10 µM: [10] | [12] | [1] | [2] | [18] | [3] | [6] | [8] | [19] | [15]

Clc1ccc(Cc2c[nH]c3nccc(-c4ccccc4)c23)cn1 [Compound P-0286]
≤ 10 µM: [17] | [4]

O=S(=O)(NCc1ccnc2[nH]ccc12)c1ccc(F)c(F)c1 [Compound P-0345]
≤ 10 µM: [17] | [20]

O=S(=O)(Cc1ccccc1)NCc1c[nH]c2ncccc12 [Compound P-0581]
≤ 10 µM: [17]

Cc1cc(C(=O)c2c[nH]c3nccc(-c4cccc(N)c4)c23)n(C)n1 [Compound P-0332]
≤ 10 µM: [17]

O=C(O)CCc1c[nH]c2ncccc12 [Compound P-0490]
≤ 10 µM: [17]

O=[N+]([O-])c1cccc(S(=O)(=O)NCc2ccnc3[nH]ccc23)c1 [Compound P-0480]
≤ 10 µM: [17]

O=S(=O)(Cc1cccc(Cl)c1)NCc1c[nH]c2ncccc12 [Compound P-1138]
≤ 10 µM: [17] | [6]

O=C(c1ccc(Cl)cc1)c1c[nH]c2nccc(-c3cccnc3)c12 [Compound P-0113]
≤ 10 µM: [17] | [4] | [15] | [21]
